Consider 14 molecules from patent publication EP0036357A1, “Antalgic and antiagregant cetonic derivatives of 5,6-diaryl-1,2,4-triazines, usable in the treatment of migraine” (PIERRE FABRE S.A., priority 1980, dated 1981).

Like-named read-outs stand apart in the source and are kept apart here.

The test system of data set [1] is contorsions à la phényl benzoquinone. Kind of data set: Phenylbenzoquinone writhing test (Siegmund), analgesic activity. The settings on record: po, 0.5 h; dose giving 50 % decrease of writhes; per os, mouse, 30 minutes before i.p. phenylbenzoquinone; read-out: DE50 (the source's name). Format: in vivo, souris. The protocol:
L'activité sur le test des contorsions à la phényl benzoquinone (selon SIEGMUND et Coll. - J. Pharm. Exptl. Ther. 1957, 119, 453) […] administration du produit per os; la dose est exprimée en mg/kg chez la souris 30 minutes avant l'injection […] sont exprimés en pourcentage de variation du nombre de contorsions; pour les molécules les plus actives, nous avons déterminé la dose qui provoque 50 % de diminution des contorsions DE50. Dans le tableau ci-dessous nous avons répertorié les molécules dont l'activité est supérieure ou é[…] (DE50 ≃ 40).
(Writhing tests count abdominal constrictions after an irritant is injected.)

Data set [2] can be described thus: Qualitative solubility in solvents. The class given is physicochemical. The settings on record: for Insoluble dans: solvents in which the compound is insoluble; for Soluble dans: solvents in which the compound is soluble.
Data set [3] is described as follows: Acute toxicity (LD50) in mice, Miller and Tainter method. Particulars: in vivo, mouse about 20 g. The text has this: L'étude de la toxicité a été effectuée chez la souris conventionnelle pesant environ 20 grammes.
Les substances ont été administrées par voie orale et intrapéritonéale. Les doses létales 50 sont exprimées en mg/kg et ont été calculées selon la méthode de MILLER et TAINTER, Proc. Soc. Exper. Biol. Med. 1944, 57, 261.
A titre d'exemple dans le tableau ci-dessous figurent quelques valeurs de doses toxiques provoquant 50 % de mortalité.

A short description of data set [4]: Tolerance on repeated administration. The class given is in vivo.
Where [5] appears, read: ip, intraperitoneal route, read-out: DL50 voie I.P.
Setting [6] is: oral route, read-out: DL50 voie orale.

Regarding `COc1ccc(-c2nc(=O)n(CC(C)=O)nc2-c2ccc(OC)cc2)cc1` [ST 753, Oxo-3 acétonyl-2 di(paraméthoxyphényl) 5-6 as triazine], in data set [1], the ED50 is 15 mg/kg. Besides, in data set [2], the Insoluble dans result is recorded as “l'eau, les acides et bases dilués, l'éther” and the Soluble dans entry was “l'éthanol, le benzène, le chlorure de méthylène et le chloroforme”. In addition, in data set [3] (setting [5]), the LD50 was greater than 500 mg/kg. Besides, in data set [3] (setting [6]), the LD50 is greater than 1500 mg/kg. The “tolérées par administration répétée” value in data set [4] is given as “les mieux tolérées”.
Take `COc1ccc(-c2nc(=O)n(C(C)C(C)=O)nc2-c2ccc(OC)cc2)cc1` (stereo not drawn) [ST 765, Oxo-3 α méthylacétonyl-2 di (paraméthoxyphényl) 5-6 as triazine]: the ED50 in data set [1] was determined as 10 mg/kg. For the same molecule, the Insoluble dans entry in data set [2] is listed as “l'eau, les acides et bases dilués, et l'éther”. In addition, in data set [2], the Soluble dans entry is reported as “l'éthanol, le benzène, le chlorure de méthylène et le chloroforme”. Further, the figures for the LD50 in data set [3] (setting [5]) and in data set [3] (setting [6]) were greater than 1000 mg/kg and greater than 2000 mg/kg, respectively. The “tolérées par administration répétée” value in data set [4] is listed as “les mieux tolérées”.
For the molecule `CC(=O)C(C)n1nc(-c2ccc(N(C)C)cc2)c(-c2ccc(N(C)C)cc2)nc1=O` (stereo not shown) [ST 802, Oxo-3αméthylacétonyl-2 di(paradiméthylaminophényl) 5-6 as triazine], in data set [1], the ED50 worked out at 5 mg/kg. Besides, in data set [2], the Insoluble dans result is listed as “l'eau, les bases diluées et l'éther” and the Soluble dans result is listed as “les acides dilués aqueux, l'éthanol, le benzène, le chlorure de méthylène et le chloroforme”. For the same molecule, the LD50 in data set [3] (setting [6]) is greater than 1500 mg/kg.
`CN(C)c1ccc(-c2nc(=O)n(CC(=O)c3ccccc3)nc2-c2ccc(N(C)C)cc2)cc1` [ST 813, Oxo-3 acétophényl-2 di (paradiméthylaminophényl) 5-6 as triazine]: in data set [2], the Insoluble dans result is reported as “l'eau, les bases diluées, le benzène, l'éthanol et l'éther” and the Soluble dans result was “les acides dilués aqueux, le chlorure de méthylène et le chloroforme”. The LD50 in data set [3] (setting [5]) is roughly 750 mg/kg. In addition, the LD50 in data set [3] (setting [6]) was greater than 1000 mg/kg.
For `COc1ccc(-c2nc(=O)n(CC(=O)c3ccc(O)c(O)c3)nc2-c2ccc(OC)cc2)cc1` [ST 827, Oxo-3 (3,4 dihydroxyphénacyl)-2 di(paraméthoxyphényl) 5-6 as triazine], in data set [2], the Insoluble dans entry is given as “l'eau, les acides dilués, le benzène, le chlorure de méthylène et l'éther” and the Soluble dans result is recorded as “les bases diluées et l'éthanol”. Moreover, the LD50 in data set [3] (setting [6]) is greater than 1000 mg/kg.
In the case of `CN(C)c1ccc(-c2nc(=O)n(CC(=O)c3ccc(O)c(O)c3)nc2-c2ccc(N(C)C)cc2)cc1` [ST 842, Oxo-3 (3,4 dihydroxyphénacyl)-2 di(paradiméthylaminophényl) 5-6 as triazine], in data set [2], the Insoluble dans result is on record as “l'eau, le benzène, le chlorure de méthylène, l'éther” and the Soluble dans entry is listed as “les acides et les basés dilués et l'éthanol”. Further, the LD50 in data set [3] (setting [6]) was greater than 1000 mg/kg.
On to `COc1ccc(-c2nc(=O)n(CC(=O)c3ccc(Br)cc3)nc2-c2ccc(OC)cc2)cc1` [ST 844, Oxo-3 (p-bromophénacyl)-2 di(paraméthoxyphényl) 5-6 as triazine], for which, in data set [2], the Insoluble dans result was “l'eau, les acides et bases dilués” and the Soluble dans result is “l'éthanol, le benzène, le chlorure de méthylène, le chloroforme”. The LD50 in data set [3] (setting [5]) is roughly 800 mg/kg. For the same molecule, the LD50 in data set [3] (setting [6]) was greater than 2000 mg/kg.
Turning to `COc1ccc(-c2nc(=O)n(C(C(=O)c3ccccc3)c3ccccc3)nc2-c2ccc(OC)cc2)cc1` (stereo not drawn) [ST 908, Oxo-3 (α phénylacétophénone)-2 di (paraméthoxyphényl)-5-6 as triazine], in data set [2], the Insoluble dans result was “l'eau, les acides et les bases dilués” and the Soluble dans result is given as “l'éthanol, le chlorure de méthylène, le chloroforme et l'éther”. In addition, the LD50 in data set [3] (setting [5]) was greater than 500 mg/kg. Also, the LD50 in data set [3] (setting [6]) was greater than 1000 mg/kg.
As for `CC(=O)Cn1nc(-c2ccc(N(C)C)cc2)c(-c2ccc(N(C)C)cc2)nc1=O` [ST 910, Oxo-3 acétonyl-2 di(paradiméthylaminophényl) 5-6 as triazine], in data set [1], the ED50 stood at 4 mg/kg. In data set [2], the Insoluble dans entry is “l'eau et les bases diluées, le benzène et l'éther” and the Soluble dans entry was “les acides dilués, l'éthanol, le chlorure de méthylène et le chloroforme”. For the same molecule, in data set [3] (setting [6]), the LD50 was greater than 1500 mg/kg.
Regarding `CN(C)c1ccc(-c2nc(=O)n(C(C(=O)c3ccccc3)c3ccccc3)nc2-c2ccc(N(C)C)cc2)cc1` (stereo not drawn) [ST 911, Oxo-3 (α phénylacétophénone)-2 di(paradiméthylaminophényl) 5-6 as triazine], in data set [2], the Insoluble dans entry is “l'eau, les bases diluées, l'éthanol et l'éther” and the Soluble dans entry is “les acides dilués, le benzène, le chlorure de méthylène et le chloroforme”. Also, in data set [3] (setting [6]), the LD50 is greater than 1000 mg/kg.
On to `CC(=O)CCCn1nc(-c2ccc(N(C)C)cc2)c(-c2ccc(N(C)C)cc2)nc1=O` [ST 924, Oxo-3 (δ propylméthylcétone)-2 di(p-diméthylaminophényl)-5-6 as triazine], for which the ED50 in data set [1] was determined as 7 mg/kg. The LD50 in data set [3] (setting [6]) is greater than 1500 mg/kg.
As for `CCC(=O)CCn1nc(-c2ccc(N(C)C)cc2)c(-c2ccc(N(C)C)cc2)nc1=O` [ST 925, Oxo-3 ( δ diéthylcétone)-2 di(paradiméthyaminophényl) 5, 6 as triazine], in data set [1], the ED50 was 5 mg/kg. Also, in data set [2], the Insoluble dans entry is recorded as “l'eau, les bases diluées et l'éther” and the Soluble dans entry is “les acides dilués, l'éthanol, le benzène, le chlorure de méthylène et le chloroforme”. Further, the LD50 in data set [3] (setting [5]) is greater than 500 mg/kg. For the same molecule, the LD50 in data set [3] (setting [6]) is greater than 1000 mg/kg.
For the molecule `CCC(=O)CCn1nc(-c2ccc(OC)cc2)c(-c2ccc(OC)cc2)nc1=O` [ST 966, Oxo-3 (δ diéthylcétone)-2 di(paraméthoxyphényl)-5, 6 as triazine], in data set [2], the Insoluble dans entry is recorded as “l'eau, les bases et les acides dilués et l'éther” and the Soluble dans entry is given as “l'éthanol, le benzène, le chlorure de méthylène et le chloroforme”. Further, the LD50 in data set [3] (setting [6]) was greater than 2000 mg/kg.
Take `O=C(OCC(O)CO)c1ccccc1Nc1ccnc2cc(Cl)ccc12` (stereo not shown) [glafénine, reference compound]: the ED50 in data set [1] is roughly 40 mg/kg.
